Tests used:
Raji [1] = assay: IL2 production in PD-L1 positive human Raji cells measured after 24 hrs by Cell titer glo assay
Raji [2] = assay: IL2 production in PD-L1 negative human Raji cells measured after 24 hrs by Cell titer glo assay
[3] = Metabolic stability in mouse liver microsomes assessed as parent compound remaining; format: ADME, Microsome
[4] = Metabolic stability in human liver microsomes assessed as parent compound remaining; format: ADME, Microsome
[5] = molecular target: T1, Diacylglycerol kinase alpha (Homo sapiens, UniProt P23743); assay: Inhibition of human DGK alpha using 1, 2-Dilauroyl-sn-glycerol as substrate by ADP-Glo assay
[6] = molecular target: Diacylglycerol kinase zeta (Homo sapiens, UniProt Q13574); assay: Inhibition of human DGK zeta using 1, 2-Dilauroyl-sn-glycerol as substrate by ADP-Glo kinase assay
[7] = molecular target: Diacylglycerol kinase iota (Homo sapiens, UniProt O75912); assay: Inhibition of human DGK iota using 1, 2-Dilauroyl-sn-glycerol as substrate by ADP-Glo kinase assay
[8] = molecular target: Diacylglycerol kinase beta (Homo sapiens, UniProt Q9Y6T7); assay: Inhibition of human DGK beta using 1, 2-Dilauroyl-sn-glycerol as substrate by ADP-Glo assay
[9] = molecular target: Diacylglycerol kinase gamma (Homo sapiens, UniProt P49619); assay: Inhibition of human DGK gamma using 1, 2-Dilauroyl-sn-glycerol as substrate by ADP-Glo assay
[10] = Inhibition of DGK in human whole blood cell assessed as increase in IFNgamma level incubated for 1 hr followed by anti-human CD3/ antiCD28 mAB stimulation and measure after 24 hrs by AlphaLISA assay; format: tissue-based
[11] = Induction of proliferation of human CD8-positive T cell measured after 24 hrs by Cell titer glo assay
[12] = molecular target: T2, Diacylglycerol kinase kappa (Homo sapiens, UniProt Q5KSL6); assay: Inhibition of human DGK kappa using 1, 2-Dilauroyl-sn-glycerol as substrate by ADP-Glo kinase assay
T2 sequence (Q5KSL6 whole entry): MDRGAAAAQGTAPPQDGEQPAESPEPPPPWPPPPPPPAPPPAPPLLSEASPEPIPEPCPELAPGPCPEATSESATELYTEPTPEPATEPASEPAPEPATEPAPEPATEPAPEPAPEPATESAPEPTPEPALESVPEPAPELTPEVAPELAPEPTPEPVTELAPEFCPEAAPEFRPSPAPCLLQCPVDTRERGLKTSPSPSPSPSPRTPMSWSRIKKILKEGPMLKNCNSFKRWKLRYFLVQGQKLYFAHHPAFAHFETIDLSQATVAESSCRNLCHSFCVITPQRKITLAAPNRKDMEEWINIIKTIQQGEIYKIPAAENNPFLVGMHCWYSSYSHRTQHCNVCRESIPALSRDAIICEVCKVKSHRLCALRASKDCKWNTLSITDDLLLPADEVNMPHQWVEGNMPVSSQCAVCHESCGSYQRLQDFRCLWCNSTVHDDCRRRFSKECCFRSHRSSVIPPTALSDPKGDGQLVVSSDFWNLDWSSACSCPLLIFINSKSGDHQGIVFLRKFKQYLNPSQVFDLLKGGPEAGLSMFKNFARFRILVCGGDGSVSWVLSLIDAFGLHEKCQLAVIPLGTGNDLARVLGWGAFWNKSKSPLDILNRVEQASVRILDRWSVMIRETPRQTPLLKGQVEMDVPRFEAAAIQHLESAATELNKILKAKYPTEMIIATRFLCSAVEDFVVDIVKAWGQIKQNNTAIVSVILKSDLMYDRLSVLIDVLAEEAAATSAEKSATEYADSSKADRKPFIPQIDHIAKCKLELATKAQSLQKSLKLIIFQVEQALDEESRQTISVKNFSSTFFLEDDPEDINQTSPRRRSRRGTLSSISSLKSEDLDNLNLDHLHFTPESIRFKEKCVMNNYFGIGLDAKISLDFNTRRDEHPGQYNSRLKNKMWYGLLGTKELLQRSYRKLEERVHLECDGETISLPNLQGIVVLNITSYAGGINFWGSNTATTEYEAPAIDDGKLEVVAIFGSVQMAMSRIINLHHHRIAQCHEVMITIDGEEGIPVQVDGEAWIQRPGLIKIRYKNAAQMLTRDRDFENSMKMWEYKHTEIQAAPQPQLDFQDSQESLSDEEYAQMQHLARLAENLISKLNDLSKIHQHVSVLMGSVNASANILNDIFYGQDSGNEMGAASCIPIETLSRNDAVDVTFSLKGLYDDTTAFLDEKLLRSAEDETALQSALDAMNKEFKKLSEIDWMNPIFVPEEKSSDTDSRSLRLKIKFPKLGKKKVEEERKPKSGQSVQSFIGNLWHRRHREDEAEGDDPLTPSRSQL

[13] = Inhibition of DGK in human whole blood cell assessed as increase in pERK level incubated for 1 hr followed by anti-human CD3 stimulation and measure after 15 mins by AlphaLISA assay; format: tissue-based
[14] = molecular target: T1, Diacylglycerol kinase alpha; assay: Inhibition of DGK alpha (unknown origin)

Chain of Diacylglycerol kinase iota (O75912 whole entry): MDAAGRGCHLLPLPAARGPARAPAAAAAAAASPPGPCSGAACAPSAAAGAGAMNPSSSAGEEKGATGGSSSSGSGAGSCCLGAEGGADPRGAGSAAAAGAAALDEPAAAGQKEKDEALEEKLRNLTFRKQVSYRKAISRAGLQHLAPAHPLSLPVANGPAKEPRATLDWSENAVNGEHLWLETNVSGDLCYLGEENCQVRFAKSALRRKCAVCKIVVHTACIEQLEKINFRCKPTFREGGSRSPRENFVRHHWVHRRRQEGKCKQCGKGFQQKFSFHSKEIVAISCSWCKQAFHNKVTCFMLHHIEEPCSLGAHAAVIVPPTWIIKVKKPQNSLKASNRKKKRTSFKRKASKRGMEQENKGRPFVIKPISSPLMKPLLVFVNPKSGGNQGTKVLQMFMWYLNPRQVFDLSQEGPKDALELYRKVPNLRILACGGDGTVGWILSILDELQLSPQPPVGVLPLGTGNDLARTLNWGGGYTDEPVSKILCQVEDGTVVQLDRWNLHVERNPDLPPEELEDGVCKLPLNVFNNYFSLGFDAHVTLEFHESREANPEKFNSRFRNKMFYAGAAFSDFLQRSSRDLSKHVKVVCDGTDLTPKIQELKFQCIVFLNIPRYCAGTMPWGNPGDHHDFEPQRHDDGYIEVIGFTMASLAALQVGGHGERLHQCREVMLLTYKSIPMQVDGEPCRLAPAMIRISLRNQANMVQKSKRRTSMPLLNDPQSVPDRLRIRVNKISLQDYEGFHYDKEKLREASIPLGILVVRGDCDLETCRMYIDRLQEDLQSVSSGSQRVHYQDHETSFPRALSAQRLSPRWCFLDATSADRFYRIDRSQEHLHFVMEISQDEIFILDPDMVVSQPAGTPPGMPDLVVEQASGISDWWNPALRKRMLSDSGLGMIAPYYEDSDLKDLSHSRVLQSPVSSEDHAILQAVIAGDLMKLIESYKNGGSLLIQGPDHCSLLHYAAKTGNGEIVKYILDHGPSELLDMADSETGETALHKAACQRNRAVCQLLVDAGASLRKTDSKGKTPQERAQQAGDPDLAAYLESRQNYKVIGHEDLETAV
T1 sequence (P23743 whole entry): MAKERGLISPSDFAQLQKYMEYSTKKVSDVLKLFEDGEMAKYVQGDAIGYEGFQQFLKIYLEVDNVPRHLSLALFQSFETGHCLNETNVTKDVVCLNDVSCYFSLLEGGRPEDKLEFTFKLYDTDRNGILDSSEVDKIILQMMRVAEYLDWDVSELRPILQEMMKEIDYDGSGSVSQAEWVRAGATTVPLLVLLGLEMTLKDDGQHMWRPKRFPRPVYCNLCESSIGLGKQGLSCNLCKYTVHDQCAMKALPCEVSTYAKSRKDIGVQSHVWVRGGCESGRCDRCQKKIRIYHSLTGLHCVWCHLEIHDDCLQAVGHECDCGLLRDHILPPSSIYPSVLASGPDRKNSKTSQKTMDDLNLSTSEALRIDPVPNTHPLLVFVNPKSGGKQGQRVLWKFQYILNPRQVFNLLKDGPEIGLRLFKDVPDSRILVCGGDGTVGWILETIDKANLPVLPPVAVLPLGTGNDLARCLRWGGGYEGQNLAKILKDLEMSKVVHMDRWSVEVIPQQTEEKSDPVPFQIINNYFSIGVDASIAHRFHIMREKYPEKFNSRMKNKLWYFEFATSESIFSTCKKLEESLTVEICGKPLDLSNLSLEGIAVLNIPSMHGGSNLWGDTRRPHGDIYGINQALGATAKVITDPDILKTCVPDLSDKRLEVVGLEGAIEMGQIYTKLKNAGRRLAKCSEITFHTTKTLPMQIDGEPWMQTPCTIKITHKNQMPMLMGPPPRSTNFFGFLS
Chain of Diacylglycerol kinase gamma (P49619 whole entry): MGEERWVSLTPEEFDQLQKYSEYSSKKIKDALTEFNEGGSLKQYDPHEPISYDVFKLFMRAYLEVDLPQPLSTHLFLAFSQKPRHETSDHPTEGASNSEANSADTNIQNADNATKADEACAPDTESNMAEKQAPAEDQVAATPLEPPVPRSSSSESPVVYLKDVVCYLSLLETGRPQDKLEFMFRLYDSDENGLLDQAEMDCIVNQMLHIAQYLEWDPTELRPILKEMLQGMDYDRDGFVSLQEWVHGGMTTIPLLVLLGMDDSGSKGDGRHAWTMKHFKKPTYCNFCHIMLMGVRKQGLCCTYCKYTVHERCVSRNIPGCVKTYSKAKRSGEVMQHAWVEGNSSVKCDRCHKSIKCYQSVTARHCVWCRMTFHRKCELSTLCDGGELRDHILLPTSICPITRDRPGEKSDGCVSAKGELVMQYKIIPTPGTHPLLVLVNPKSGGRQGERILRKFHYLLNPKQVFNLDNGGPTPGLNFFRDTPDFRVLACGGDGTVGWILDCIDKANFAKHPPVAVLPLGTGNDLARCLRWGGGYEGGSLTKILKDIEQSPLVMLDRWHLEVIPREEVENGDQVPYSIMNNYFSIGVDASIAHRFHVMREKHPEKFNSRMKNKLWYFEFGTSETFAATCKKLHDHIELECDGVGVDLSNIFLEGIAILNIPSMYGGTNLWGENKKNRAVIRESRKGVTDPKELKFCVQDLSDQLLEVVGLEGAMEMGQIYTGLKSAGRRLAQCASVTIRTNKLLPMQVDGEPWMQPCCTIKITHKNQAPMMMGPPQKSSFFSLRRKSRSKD
Chain of Diacylglycerol kinase zeta (Q13574 whole entry): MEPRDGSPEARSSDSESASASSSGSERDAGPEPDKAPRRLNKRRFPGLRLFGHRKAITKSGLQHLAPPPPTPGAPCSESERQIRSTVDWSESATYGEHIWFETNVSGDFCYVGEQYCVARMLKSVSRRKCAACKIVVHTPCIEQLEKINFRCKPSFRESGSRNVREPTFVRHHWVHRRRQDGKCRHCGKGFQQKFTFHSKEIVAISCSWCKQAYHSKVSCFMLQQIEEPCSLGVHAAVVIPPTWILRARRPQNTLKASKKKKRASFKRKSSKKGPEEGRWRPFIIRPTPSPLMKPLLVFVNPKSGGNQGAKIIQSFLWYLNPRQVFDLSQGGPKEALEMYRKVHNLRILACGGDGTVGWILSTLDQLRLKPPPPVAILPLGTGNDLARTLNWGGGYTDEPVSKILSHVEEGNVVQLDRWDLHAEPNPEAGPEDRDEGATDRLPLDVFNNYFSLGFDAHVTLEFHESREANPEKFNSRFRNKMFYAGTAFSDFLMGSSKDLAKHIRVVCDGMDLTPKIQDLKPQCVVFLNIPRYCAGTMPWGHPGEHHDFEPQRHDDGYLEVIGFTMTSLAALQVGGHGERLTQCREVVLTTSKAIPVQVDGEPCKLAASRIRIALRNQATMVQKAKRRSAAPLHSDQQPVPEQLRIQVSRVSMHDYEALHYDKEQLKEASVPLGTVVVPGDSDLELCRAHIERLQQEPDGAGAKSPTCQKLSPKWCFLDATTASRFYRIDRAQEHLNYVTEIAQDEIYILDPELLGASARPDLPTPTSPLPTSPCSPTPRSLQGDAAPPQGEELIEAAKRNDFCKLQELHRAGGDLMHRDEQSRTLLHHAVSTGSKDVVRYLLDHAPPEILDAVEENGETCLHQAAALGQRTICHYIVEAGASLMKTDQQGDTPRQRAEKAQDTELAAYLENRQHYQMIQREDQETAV

Structure (SMILES) | EC50 (Raji [1]) [nM] | EC50 (Raji [2]) [nM] | Stability [3] [%] | Stability [4] [%] | also measured
CC(=O)c1c(N2CCN(C(c3ccccc3)c3ccccc3)CC2)c2ccccc2n(C)c1=O | 8500 | 13000 | – | – | –
Cn1c(=O)cc(N2CCN(C(c3ccccc3)c3ccccc3)CC2)c2ccccc21 | > 5000 | > 16000 | 63 | 93 | –
Cn1c(=O)c([N+](=O)[O-])c(N2CCN(CCc3ccccc3)CC2)c2ccccc21 | > 100000 | > 100000 | 6 | 28 | –
CCCN1CCN(c2c([N+](=O)[O-])c(=O)n(C)c3ccccc23)CC1 | > 100000 | > 100000 | – | – | –
Cn1c(=O)c(C(=O)O)c(N2CCN(C(c3ccccc3)c3ccccc3)CC2)c2ccccc21 | > 100000 | > 100000 | – | – | –
O=C1/C(=C/C=C/c2ccco2)SC(=S)N1NS(=O)(=O)c1ccccc1 | – | – | – | – | IC50 [5]: 600 nM
Cn1c(=O)c([N+](=O)[O-])c(N2CCN(C(c3ccc(F)cc3)c3ccc(F)cc3)CC2)c2cccnc21 | 7700 | 13000 | – | – | –
O=c1c2ccccc2[nH]c(=S)n1CCN1CCC(=C(c2ccc(F)cc2)c2ccc(F)cc2)CC1 [DIACYLGLYCEROL KINASE INHIBITOR II] | – | – | – | – | IC50 [5]: 4300 nM; IC50 [8]: > 10000 nM; IC50 [9]: 3400 nM; IC50 [6]: > 10000 nM; IC50 [7]: > 10000 nM; EC50 [10]: > 10000 nM; EC50 [11]: > 10000 nM
CCn1c(=O)c([N+](=O)[O-])c(N2CCN(C(c3ccc(F)cc3)c3ccc(F)cc3)CC2)c2ccccc21 | > 100000 | > 100000 | – | – | –
Cc1nc2sccn2c(=O)c1CCN1CCC(=C(c2ccc(F)cc2)c2ccc(F)cc2)CC1 [RITANSERIN] | – | – | – | – | IC50 [5]: > 5000 nM; IC50 [8]: > 10000 nM; IC50 [9]: > 10000 nM; IC50 [6]: > 10000 nM; IC50 [7]: > 10000 nM; EC50 [13]: > 20000 nM; IC50 [14]: 15100 nM; EC50 [11]: > 10000 nM
O=c1[nH]c2ccccc2c(N2CCN(C(c3ccc(F)cc3)c3ccc(F)cc3)CC2)c1[N+](=O)[O-] | > 33000 | > 100000 | – | – | –
Cc1nc2sccn2c(=O)c1CCN1CCC(=C(c2ccccc2)c2ccc(F)cc2)CC1 | – | – | – | – | IC50 [14]: 25400 nM

Continued, in another order:

EC50 (Raji [1]) [nM] | EC50 (Raji [2]) [nM] | Stability [3] [%] | Stability [4] [%] | Structure (SMILES) | also measured
6390 | 9280 | 4 | 25 | CC(c1ccccc1)N1CCN(c2c([N+](=O)[O-])c(=O)n(C)c3ccccc23)CC1 (stereo not drawn) | –
420 | 370 | < 1 | 10 | C#CCCC1(CCCN2CCN(c3c([N+](=O)[O-])c(=O)n(C)c4ccc(Br)nc34)CC2)N=N1 | –
7100 | 5800 | 63 | 75 | Cn1c(=O)c(C(=O)C(F)(F)F)c(N2CCN(C(c3ccccc3)c3ccccc3)CC2)c2ccccc21 | –
670 | 760 | 5 | 69 | CN(C)c1ccc2c(c1)c(N1CCN(C(c3ccc(F)cc3)c3ccc(F)cc3)CC1)c([N+](=O)[O-])c(=O)n2C | –
1370 | 1240 | – | – | Cn1c(=O)c(C#N)c(N2CCN(C(c3ccccc3)c3ccccc3)CC2)c2ccccc21 | –
130 | 120 | 93 | 97 | Cn1c(=O)c([N+](=O)[O-])c(N2CCN(C(c3ccc(F)cc3)c3ccc(F)cc3)CC2)c2cc(C#N)ccc21 | IC50 [5]: 34 nM; IC50 [6]: 10000 nM; IC50 [7]: 6200 nM
1500 | 2500 | 8 | 43 | Cn1c(=O)c([N+](=O)[O-])c(N2CCN(Cc3ccccc3)CC2)c2cc(F)ccc21 | –
290 | 310 | 88 | 92 | Cn1c(=O)c([N+](=O)[O-])c(N2CCN(C(c3ccc(F)cc3)c3ccc(F)cc3)CC2)c2ncccc21 | IC50 [5]: 53 nM; IC50 [6]: 2700 nM; IC50 [7]: 1000 nM
610 | 1100 | – | 84 | Cn1c(=O)c(C#N)c(N2CCN(C(c3ccc(F)cc3)c3ccc(F)cc3)CC2)c2cc(F)ccc21 | –
2600 | 1800 | – | – | Cn1c(=O)c([N+](=O)[O-])c(N2CCN(C(c3ccc(F)cc3)c3ccc(F)cc3)CC2)c2ccc(F)cc21 | –
3200 | 2400 | 82 | 93 | Cn1c(=O)c([N+](=O)[O-])c(N2CCN(C(c3ccccc3)c3ccccc3)CC2)c2ccccc21 | IC50 [5]: 15 nM; IC50 [8]: 2500 nM; IC50 [9]: 1900 nM; IC50 [12]: > 10000 nM; IC50 [6]: > 10000 nM; IC50 [7]: > 10000 nM; EC50 [10]: > 20000 nM; EC50 [13]: > 20000 nM
4100 | 20000 | 52 | 49 | CCOC(=O)c1c(N2CCN(C(c3ccccc3)c3ccccc3)CC2)c2ccccc2n(C)c1=O | –
390 | 400 | 43 | 100 | COc1ccc2c(n1)c(N1CCN(C(c3ccc(F)cc3)c3ccc(F)cc3)CC1)c(C#N)c(=O)n2C | –
340 | 490 | 77 | 89 | Cn1c(=O)c([N+](=O)[O-])c(N2CCN(C(c3ccc(F)cc3)c3ccc(F)cc3)CC2)c2cc(F)ccc21 | –
630 | 1200 | 8 | 79 | COc1ccc2c(c1)c(N1CCN(C(c3ccc(F)cc3)c3ccc(F)cc3)CC1)c([N+](=O)[O-])c(=O)n2C | –
190 | 67 | 80 | 92 | Cn1c(=O)c(C#N)c(N2CCN(C(c3ccc(F)cc3)c3ccc(F)cc3)CC2)c2nc(C#N)ccc21 | –
1500 | 3700 | 84 | 86 | Cn1c(=O)c([N+](=O)[O-])c(N2CCN(C(c3ccc(F)cc3)c3ccc(F)cc3)CC2)c2ccccc21 | –
560 | 840 | 63 | 100 | Cn1c(=O)c([N+](=O)[O-])c(N2CCN(C(c3ccc(F)cc3)c3ccc(F)cc3)CC2)c2cnccc21 | –

— ChEMBL document CHEMBL5360601, “Discovery of Potent, Dual-Inhibitors of Diacylglycerol Kinases Alpha and Zeta Guided by Phenotypic Optimization” (ACS Med Chem Lett, 2023)
